In US4182877A, “Substituted anthranilates” (Commonwealth Scientific and Industrial Research Organization, priority 1976, dated 1980):
Converted amounts (≈) assume the structure as drawn.

These compounds were tested on Tilletia foetida (assay: In vitro inhibition of germination of Tilletia foetida (wheat smut) spores on agar medium). Conditions: Tilletia laevis, 10° C. in the dark, 8-9 days, tested at 5, 10, 25, 50, 100 and 150 ppm, spores germinated as percentage of control, read-out: Minimum inhibitory concentration (ppm) which reduces germination to <20% control.
Type: cell-based
Protocol: In vitro assays using compounds of the formula I were carried out as follows. An agar medium prepared from Difco "Bacto-Agar" and distilled water was sterilised in an autoclave. Aliquots of the test compounds in acetone solution were added to two duplicate samples of the medium to give final concentrations of 5, 10, 25, 50, 100 and 150 ppm, and the resulting solutions poured into sterilised petri dishes and inoculated with Tilletia foetida (wheat smut) from the kernels of infected wheat. […] The inhibition of germination due to the test compounds was then determined by estimating (microscope) the spores germinated as a percentage of control.
`CCOC(=O)c1c(Cl)cc(C)cc1N(C)C` [Compound 1, Ethyl 6-chloro-4,N,N-trimethylanthranilate] was tested, and the MIC was 25 µg/mL (≈ 103 µM).
Work on `CCOC(=O)c1c(Cl)c(Cl)c(C)c(Cl)c1N(C)C` [Compound 3, Ethyl 3,5,6-trichloro-4,N,N-trimethylanthranilate] yielded an MIC of 5 µg/mL (≈ 16.1 µM).
For `CCOC(=O)c1c(N(C)C)cc(C)c(SC#N)c1Cl` [Compound 4, Ethyl 6-chloro-4,N,N-trimethyl-5-thiocyanoanthranilate], the MIC was < 5 µg/mL.
Compound `CCOC(=O)c1c(N(CC)CC)cc(C)c([N+](=O)[O-])c1Cl` [Compound 7] has an MIC of 25 µg/mL (≈ 79.4 µM).
Compound `CCOC(=O)c1c(N(CC)CC)cc(C)c(SC#N)c1Cl` [Compound 5] has an MIC of 10 µg/mL (≈ 30.6 µM).
`CCOC(=O)c1c(Cl)cc(C)cc1N(CC)CC` [R^1 = R^2 = R^3 = Et] showed an MIC of 25 µg/mL (≈ 92.7 µM).
With `CCOC(=O)c1c(N(C)C)cc(C)c([N+](=O)[O-])c1Cl` [Compound 6, Ethyl-6-chloro-4,N,N-trimethyl-5-nitroanthranilate] the MIC was < 5 µg/mL.
